Each structure is given as a SMILES string. Where only a bound is given, the exact number is not on record here.

One assay concerns the target human GOAT (Homo sapiens (Human), UniProt Q96T53). In words: GOAT TR-FRET (HTRF) inhibition assay, 384-well. It is filed as biochemical. As to conditions: His-tag human GOAT membrane preparation from sf9 cells; read-out: hGOAT IC50. The method, then:
Compounds contained herein were evaluated for their ability to inhibit the activity of GOAT. GOAT activity was assessed using a time-resolved fluorescence energy transfer (TR-FRET) assay in a 384-well format. His-tag human GOAT enzyme was in the form of a cell membrane preparation from sf9 cells infected with hGOAT-V5-His baculovirus. Varying concentrations of test compound with final DMSO concentration kept to 0.5% were added to membrane solution. Human GOAT membrane activity was established in a buffer having final concentration 0.25 mg/mL in 50 mM MOPS, pH7.5; 50 mM KCl; 0.1 mg/mL BSA; 50 μM CHAPS; and 2 mM EDTA. Substrate solution consisting of biotinylated ghrelin peptide (final concentration 100 nM), octanoyl coA (final concentration 2 μM) and palmitoyl CoA (final concentration 50 μM) was added to initiate the reaction. Plates were sealed, centrifuged for 1 minute at 2000 rpm, then incubated at 30° C. for 80 minutes with gentle shaking on an Eppendorf mix plate. Reaction termination and detection mix consisting of chicken anti-active ghrelin antibody (final concentration of 10 nM), Europium W1024-labeled streptavidin (final concentration of 4 nM), GOAT anti-chicken Dylight (final concentration of 12.5 nM), and GS[DAP-oc]-FL-amide inhibitor (final concentration of 1 μM) was added before further incubation for 40 minutes at 30° C. The plate was then read on an Envision in HTRF mode with excitation filter UV (TRF) 340 and first emission filter of APC 665 and a second emission filter of Europium 615. HTRF readings were acquired as per instrument defined LANCE-DELFIA protocol with a delay and window times of 50 μs for both; number of sequential windows: 1; time between flashes: 2000 μs between each of 100 flashes and 10 flashes for the second detector. The HTRF ratio was calculated directly by the instrument as the ratio of 665 window/615 window. Percent inhibition was calculated as 100−(100×(U−NC)/(PC−NC)) where U was the unknown value HTRF ratio (test compound value), NC was the negative control (100% inhibition value generated from a potent inhibitor), and PC was the positive control (100% activity generated from 0.5% DMSO vehicle). IC50 values were generated in GraphPad Prism (Version 4.03) using non-linear regression curve fit and sigmoidal dose response variable slope analysis.
(In TR-FRET formats the signal depends on donor and acceptor labels being close together.)

The subject of assay [1] is acyl ghrelin. In words: Single-dose PK/PD study, acyl ghrelin reduction in cynomolgus monkeys. It is filed as in vivo. Conditions: single oral dose 10 mg/kg, over the first 24 hours, fasted. Here is the method: A single-dose PK/PD study was conducted in cynomolgus monkeys after a 10 mg/kg dose of Example 1a. On day zero, after an overnight fast, three monkeys were administered an oral dose of vehicle, and blood was collected pre-dose and 1, 3, 8, and 24 hours later. The 24 hour time point served as the pre-dose measurement for day 1 when, after an overnight fast, the monkeys were administered a single oral dose of 10 mg/kg Example 1a. Blood was collected at various time points (15 minutes, 30 minutes, 1 hour, 3 hours, 8 hours, 24 hours, 48 hours, 96 hours, and 168 hours) with overnight fasting throughout the study.

Assay [2] deals with acyl ghrelin. As to the kind of experiment: Acyl ghrelin reduction in rats (fasting induced). The assay is classed as in vivo, male SD rats. Conditions: 10 mg/kg, same design as mice. Here is the method: (§1) Normal mice were administered various oral doses of Example 1a on a bid basis for two days (4 doses). Food was withdrawn the evening of the second day after the fourth dose, and then the animals were administered a final dose the morning of the third day. Three hours after this fifth and final dose, blood was collected for ghrelin and acyl ghrelin measurement by ELISA.
The same experimental design was conducted in rats administered 10 mg/kg of Example 1a.

The subject of assay [3] is acyl ghrelin. As to the kind of experiment: Acyl ghrelin reduction in mice on a high fat, high carb diet. The assay is classed as in vivo, male C57BL/6 mice. Conditions: HFHC diet; for reduction in acyl ghrelin levels compared to Rimonabant followed by vehicle: statistically significant. Here is the method:
Normal mice were acclimated to individual housing for two weeks on normal chow diet (20% calories from protein, 35% from carbohydrate, and 45% from fat). All mice except a control group were then switched to a high fat, high carb (HFHC) diet to cause obesity. Mice on the HFHC diet were administered 3 mg/kg Rimonabant once daily for seven days to cause weight loss except for one group that initiated 10 mg/kg Example 1a immediately. Mice that had been treated with Rimonabant were then administered various treatments in the evening for 21 days: vehicle, 3 mg/kg Rimonabant, or 10 mg/kg Example 1a. Mice were fasted overnight and administered a final treatment in the morning. Three hours later, blood was collected for plasma acyl ghrelin and des-acyl ghrelin determination.

Assay [4] relates to acyl ghrelin. As to the kind of experiment: Acyl ghrelin reduction in mice (fasting induced). The assay is classed as in vivo. As to conditions: 5 doses; for acyl ghrelin reduction: 3 h after final dose, p<0.05. The method, then: as §1
The mark [5] stands for this setting: continuous treatment with 10 mg/kg Example 1a.
Where [6] appears, read: normal mice, various oral doses bid, blood 3 h after final dose, fasted, ELISA.

Sequence of human GOAT (Q96T53 whole entry): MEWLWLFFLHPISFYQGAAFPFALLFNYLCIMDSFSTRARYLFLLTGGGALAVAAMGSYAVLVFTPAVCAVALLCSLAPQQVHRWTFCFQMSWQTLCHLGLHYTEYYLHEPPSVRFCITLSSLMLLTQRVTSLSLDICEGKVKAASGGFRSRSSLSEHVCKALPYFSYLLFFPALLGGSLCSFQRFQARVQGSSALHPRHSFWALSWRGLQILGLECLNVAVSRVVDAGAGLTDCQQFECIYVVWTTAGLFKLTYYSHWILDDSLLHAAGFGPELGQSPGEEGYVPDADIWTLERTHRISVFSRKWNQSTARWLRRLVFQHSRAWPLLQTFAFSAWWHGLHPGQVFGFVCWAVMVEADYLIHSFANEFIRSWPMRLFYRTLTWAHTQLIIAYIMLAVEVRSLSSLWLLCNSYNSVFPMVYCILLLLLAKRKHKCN

Turning to `Cc1ccc2c(n1)CC[C@@H]2Oc1cc(Cl)c2c(CC(=O)O)csc2c1` [Example 2a, (S)-2-(4-chloro-6-((2-methyl-6,7-dihydro-5H-cyclopenta[b]pyridin-5-yl)oxy)benzo[b]thiophen-3-yl)acetic acid], the IC50 – broadly, the point on the concentration scale where inhibition reaches its midpoint – on human GOAT was below 50 nM.
Take `O=C(O)Cc1csc2c(F)c(O[C@@H]3COc4nc(C(F)(F)F)ccc43)cc(Cl)c12` [Example 5b]: the IC50 at human GOAT is below 50 nM.
With `N#Cc1ccc2c(n1)CCC2Oc1cc(Cl)c2c(CC(=O)O)csc2c1` (racemic) [Example 8, 2-(4-chloro-6-((2-cyano-6,7-dihydro-5H-cyclopenta[b]pyridin-5-yl)oxy)benzo[b]thiophen-3-yl)acetic Acid], the half-maximal inhibitory concentration (IC50) on human GOAT is below 50 nM.
In the case of `O=C(O)Cc1csc2c(F)c(O[C@H]3COc4nc(C(F)(F)F)ccc43)cc(Cl)c12` [Example 5a], the IC50 on human GOAT was below 5000 nM.
Regarding `O=C(O)Cc1csc2cc(O[C@H]3CCc4ncccc43)cc(Cl)c12` [Example 1a, (S)-2-(4-chloro-6-((6,7-dihydro-5H-cyclopenta[b]pyridin-5-yl)oxy)benzo[b]thiophen-3-yl)acetic Acid], in the assay on acyl ghrelin [1], the “reduction in the acyl ghrelin AUC relative to vehicle treatment” value was 51%. Further, in the assay with acyl ghrelin [2], the acyl ghrelin levels entry is “significantly reduced” and the des-acyl ghrelin levels result was “increased”. Besides, the “reduction in acyl ghrelin levels compared to Rimonabant followed by vehicle” value with acyl ghrelin [3] (10 mg/kg Example 1a for 21 days after 7 days of 3 mg/kg Rimonabant) was 61%. Further, in the assay on acyl ghrelin [3] (both Example 1a treatments (10 mg/kg)), the “des-acyl ghrelin levels relative to Rimonabant followed by vehicle treatment” value was “statistically significantly elevated”. Also, in the assay with acyl ghrelin [3] (setting [5]), the “reduction in acyl ghrelin compared to vehicle treatment alone” value worked out at 28% and the “reduction in acyl ghrelin levels compared to Rimonabant followed by vehicle” value is listed as 57%. In the assay on acyl ghrelin [4] (1 mg/kg oral bid), the acyl ghrelin reduction entry was “statistically significant”. Besides, the acyl ghrelin reduction entry in the assay on acyl ghrelin [4] (10 mg/kg oral bid) is “statistically significant”. In the assay with acyl ghrelin [4] (setting [6]), the “acyl ghrelin (dose response)” value is recorded as “Dose-dependent decreases” and the “des-acyl ghrelin (dose response)” value is recorded as “increases”. Also, on human GOAT, the IC50 was below 50 nM.
Consider `Cc1ccc2c(n1)CC[C@H]2Oc1cc(Cl)c2c(CC(=O)O)csc2c1` [Example 2b, (R)-2-(4-chloro-6-((2-methyl-6,7-dihydro-5H-cyclopenta[b]pyridin-5-yl)oxy)benzo[b]thiophen-3-yl)acetic acid], for which, at human GOAT, the IC50 is below 5000 nM.
The same measure, in the same setting: the same measure for `O=C(O)Cc1csc2cc(O[C@@H]3CCc4ncccc43)cc(Cl)c12` [Example 1b, (R)-2-(4-chloro-6-((6,7-dihydro-5H-cyclopenta[b]pyridin-5-yl)oxy)benzo[b]thiophen-3-yl)acetic acid]: below 5000 nM.
As to `Cc1c(C(=O)NN2CCCCC2)nn(-c2ccc(Cl)cc2Cl)c1-c1ccc(Cl)cc1` [Rimonabant, reference compound], the “acyl ghrelin levels (so in the source); context is des-acyl ghrelin, FIG. 8)” value in the assay with acyl ghrelin [3] (3 mg/kg Rimonabant treatment alone, not as much as with Example 1a) is reported as “increased”.
As to `O=C(O)Cc1csc2c(Cl)c(O[C@H]3CCc4nc(C(F)(F)F)ccc43)cc(Cl)c12` [Example 4a], on human GOAT, the half-maximal inhibitory concentration (IC50) was below 500 nM.
On to `O=C(O)Cc1csc2c(Cl)c(O[C@@H]3CCc4nc(C(F)(F)F)ccc43)cc(Cl)c12` [Example 4b], for which the IC50 at human GOAT is below 50 nM.
For the compound `NC(=O)c1ccc2c(n1)CC[C@H]2Oc1cc(Cl)c2c(CC(=O)O)csc2c1` [Example 9b], on human GOAT, the IC50 is below 50 nM.
On the same count and under the same terms, the same measure for `O=C(O)Cc1csc2cc(O[C@@H]3COc4ncccc43)cc(Cl)c12` [Example 6b]: below 50 nM; for `O=C(O)Cc1csc2cc(O[C@H]3COc4ncccc43)cc(Cl)c12` [Example 6a]: below 50 nM; for `NC(=O)c1ccc2c(n1)CC[C@@H]2Oc1cc(Cl)c2c(CC(=O)O)csc2c1` [Example 9a]: below 500 nM.
As for `O=C(O)Cc1csc2c(Cl)c(O[C@@H]3CCc4nc(Cl)ccc43)cc(Cl)c12` [Example 3b], the IC50 on human GOAT is below 50 nM.
As to `O=C(O)Cc1csc2c(Cl)c(O[C@H]3COc4ncccc43)cc(Cl)c12` [Example 7a], the IC50 on human GOAT is below 5000 nM.
Regarding `O=C(O)Cc1csc2c(Cl)c(O[C@@H]3COc4ncccc43)cc(Cl)c12` [Example 7b], the IC50 on human GOAT is below 50 nM.
On the same count and under the same terms, the same measure for `O=C(O)Cc1csc2c(Cl)c(O[C@H]3CCc4nc(Cl)ccc43)cc(Cl)c12` [Example 3a]: below 500 nM.

Values taken from US11312709B2, “Ghrelin O-acyltransferase inhibitors” (Glaxosmithkline Intellectual Property Development Limited, priority 2018, dated 2022).
